# Reference: patent US8115059B1, “Gene expression modulation system for use in plants and method for modulating gene expression in plants” (University of Kentucky Research Foundation, priority 2005, dated 2012)
# Key:
# ms45 mutant = details: transgenic ms45 maize with Ms45 under EcR-based switch; cited from earlier work
# [1] = target: GAL4 DBD:CfEcR fusion protein (Choristoneura fumiferana); assay: cell-based or functional assay
Compound,restoration of male fertility (ms45 mutant),"methoxyfenozide concentration at maximum luciferase activity, two-hybrid gene switch, tobacco protoplasts (nM methoxyfenozide) [1]"
COc1cccc(C(=O)NN(C(=O)c2cc(C)cc(C)c2)C(C)(C)C)c1C [methoxyfenozide],able to restore male fertility,
VP16 AD:LmRXR triple mutant A62S:T81H:V123I (Lm-7) fusion protein (receptor),,80
